The assay has as its target T1, Bromodomain-containing protein 4 [368-440] (Homo sapiens, UniProt O60885).
T1 construct: 368-440
Description: BET BRD Assay. The protocol: 3x Complete Substrate plus Inhibitor Solution in Assay Medium (Opti-MEM I Reduced Serum Medium, no phenol red, and no serum) was prepared just before measuring BRET. This solution consisted of a 1:166 dilution of NanoBRET Nano-Glo Substrate plus a 1:500 dilution of Extracellular NanoLuc Inhibitor in Assay Medium. For a 96-well plate, 30 ul of NanoBRET Nano-Glo Substrate, 10 ul of Extracellular NanoLuc Inhibitor and 4,960 ul of Assay Medium were mixed to produce 5 ml of 3x Complete Substrate plus Inhibitor Solution, followed with gently mixing by inversion 5-10 times in a conical tube. (The final concentration of Extracellular NanoLuc Inhibitor in the 3x solution was 60 uM, for a working concentration of 20 uM. Use 3x Complete Substrate plus Inhibitor Solution within 2 hours. Discard any remaining solution). […] Donor emission wavelength (e.g., 450 nm) and acceptor emission wavelength (e.g., 610 nm) were measured by using the GloMax Discover System or other NanoBRET Assay-compatible luminometer (it is recommended measuring BRET within 10 minutes after adding NanoBRET Nano-Glo Substrate plus Extracellular NanoLuc Inhibitor Solution. However, BRET can be measured for up to 2 hours, but there will be some loss of luminescence signal). […]

Among the data in BindingDB's records for patent US20240226096 (Poseidon Innovation 1, 2024) are IC50 values, retold here.

Molecules are shown by their SMILES.

With `Cc1cc(-c2ccc(-n3ccn(C)c3=O)c(Cl)c2)c(O)c(-c2cccc(N3CCN(C(C)(C)C)CC3)c2)n1` [US20240226096, Example I-2], the IC50 was determined as 10.2 nM. In other words, the double-digit nanomolar range.
